Experimental data reported in paper PMC6209770 (Frontiers in Pharmacology, 2018).
Where “and” joins values, the source holds several entries; their conditions need not be identical. Equal entries are not always repeated. Where two headings read alike, the source gives them in different places.

Key:
mice [1] = assay: Spontaneous locomotor activity; type: in vivo
Method: Photoresistor actometers (Ugo Basile, Italy) connected to a counter for the recording of light-beam interruptions were used to investigate the effect of the compound on locomotor activity in mice. Locomotor activity was counted as the number of the light-beam crossing. It was recorded individually for each animal. After administration of the tested compound, each mouse was placed separately in a cage for 30 min habituation period. After that time, the parameter was measured for 1 min and 5 min (i.e., time equal to the observation period in four plate test and elevated plus maze test, respectively). The cages were sanitized with 70% ethanol after each mouse.

mice [2] = assay: Four plate test after pretreatment with pCPA, WAY-100635 or AMPT; type: in vivo
Method: (§1) Mice were placed individually in the four plate apparatus connected to the power source. After a 15 s of habituation period, each mouse crossing from one plate to another (two limbs on one plate, two on another) was punished by an electric shock (0.8 mA, 0.5 s). If the mouse continued running, it received no new shock for the following 3 s. The number of punished crossings was calculated during the 60 s of the test.
We performed the four plate test 30 min after the administration.
Control group received vehicle (1% Tween). […] We performed the four plate test 30 min after the compound administration.

serotonin levels = test system: serotonin levels; parameters: method as in Imaizumi et al. (1996); conditions: 3-day treatment with pCPA 200 mg/kg; ref Imaizumi et al. (1996); cited from earlier work
mice [3] = assay: Four plate test; type: in vivo
Method: as §1

mice [4] = assay: Elevated plus maze test; type: in vivo
D2 receptor = D2 receptor (Homo sapiens, UniProt P14416); assay: cell-based
Method: (§2) Serial dilutions were prepared in 96-well microplate in appropriate dilution buffer (HBSS or medium) with 0.1% BSA added, and 8–10 concentrations were tested in duplicates. At least two independent experiments were performed for each type of method. Assays were done according to manufacturer’s protocols.

GABAA receptor = conditions: read-out: GABAA receptors Ki ± SEM; rat cerebral cortex, [3H]-muscimol 1 nM
Method: The final incubation mixture (total volume 250 μl) consisted of a 50 μl solution of the test compound, 50 μl of radioligand and 150 μl of diluted membranes or the tissue suspension. The incubation was terminated by rapid filtration over glass fiber filters GF/B (PerkinElmer, United States) using 96-well FilterMate Harvester (PerkinElmer, United States). Five rapid washes were performed with ice-cold 50 mM Tris–HCl buffer (pH 7.4 or 7.6). […] Radioligand binding data were analyzed using iterative curve fitting routines GraphPad Prism 5.0 (GraphPad Software). […] At least two independent experiments were performed for each assay.

[5] = target: T1, human serotonin 5-HT1A receptor (Homo sapiens, UniProt P08908); assay: cAMP assay (TR-FRET), CHO-K1 cells; conditions: 5-HT1A cAMP assay
T1 sequence (P08908 1-422): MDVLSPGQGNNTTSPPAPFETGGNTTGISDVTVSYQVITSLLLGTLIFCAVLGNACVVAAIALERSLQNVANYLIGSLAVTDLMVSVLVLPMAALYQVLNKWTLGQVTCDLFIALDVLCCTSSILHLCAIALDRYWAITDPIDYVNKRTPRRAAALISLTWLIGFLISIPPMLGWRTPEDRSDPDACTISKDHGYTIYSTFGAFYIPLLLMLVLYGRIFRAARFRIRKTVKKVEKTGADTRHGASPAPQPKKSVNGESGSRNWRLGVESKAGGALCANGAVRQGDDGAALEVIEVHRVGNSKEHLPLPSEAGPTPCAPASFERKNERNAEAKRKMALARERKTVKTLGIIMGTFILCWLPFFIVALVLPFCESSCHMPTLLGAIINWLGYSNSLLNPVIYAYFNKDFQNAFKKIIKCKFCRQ

5-HT1A receptor [6] = target: T2, 5-HT1A receptor (Homo sapiens, UniProt P08908); assay: SureFire ERK-phosphorylation AlphaLISA assay, CHO-5HT1A cells; conditions: 5-HT1A pERK1/2 assay
T2 sequence (P08908 1-422): T1 sequence (P08908 1-422)
Method: as §2

5-HT1A receptor [7] = target: T2, 5-HT1A receptor; assay: Tango LiveBLAzer β-arrestin recruitment assay, HTR1A-bla U2OS cells; conditions: 5-HT1A ß-arrestin assay
5-HT1A receptor [8] = target: T2, 5-HT1A receptor; parameters: expressed in transfected cells; host or cells: CHO (CHO-5HT1A); method as in Kubacka et al., 2016; conditions: 5-HT1A Ca2+ assay, ref Kubacka et al., 2016, cited from earlier work
5-HT2A receptor = 5-HT2A receptor (Homo sapiens, UniProt P28223); type: cell-based
Method: as §2

[9] = antagonist mode, serotonin EC80 (120 nM)
[10] = antagonist mode, serotonin EC80 (45 nM)
[11] = antagonist mode, serotonin EC80 (300 nM)

Structure (SMILES): N[C@@H](Cc1ccc(Cl)cc1)C(=O)O (racemic) [pCPA, p-Chlorophenylalanine]
- Number of crossings ± SEM (mice [1]; pCPA experiment, pCPA 200 mg/kg): 29.4
- Effect on number of punished crossings (mice [2]; pCPA alone, 200 mg/kg i.p., three days): did not influence
- Reduction of serotonin levels in the cortex (serotonin levels): 30%
- Reduction of serotonin levels in the diencephalon (serotonin levels): 35%
- Reduction of serotonin levels in the midbrain (serotonin levels): 24%
- Reduction of serotonin levels in the pons with medulla (serotonin levels): 34%

Structure (SMILES): CCCN(CCC)C1CCc2cccc(O)c2C1 (stereo not drawn) [8-OH-DPAT]
- Increase in the number of punished crossings (mice [3]; 0.5 mg/kg, 15 min before test (but not 0.25, 1 or 2 mg/kg)): 38.2%
- Increase in time spent in the open arms vs non-treated control (mice [4]; 2 mg/kg, 15 min before test (but not 0.25, 0.5 or 1 mg/kg)): 154.3%
- Effect on number of open arm entries (mice [4]; 8-OH-DPAT doses tested up to 2 mg/kg, 15 min before test): no effect

Structure (SMILES): CC(N)(Cc1ccc(O)cc1)C(=O)O (stereo not drawn) [AMPT, α-methyl-p-tyrosine]
- Number of crossings ± SEM (mice [1]; AMPT experiment, AMPT 100 mg/kg): 24.5
- Effect on number of punished crossings (mice [2]; AMPT alone, 100 mg/kg i.p.): had no effect

Structure (SMILES): CN1CCc2cccc3c2[C@H]1Cc1ccc(O)c(O)c1-3 [Apomorphine]
- Emax (D2 receptor; read-out: Agonist mode Emax %): 100%
- Emax (D2 receptor; read-out: Antagonist mode Emax %): 1%

Structure (SMILES): CN1C(=O)CN=C(c2ccccc2)c2cc(Cl)ccc21 [Diazepam, diazepam]
- Increase in number of open arm entries vs non-treated control (mice [4]; mouse, in vivo): 78.5% and 73.9% and 124.6%
- Increase in time spent in the open arms vs non-treated control (mice [4]; mouse, in vivo): 84.6% and 59.9%
- Ki (GABAA receptor): 5.6 ± 0.7 nM

Structure (SMILES): COc1ccccc1N1CCN(CCCOc2cc(C)ccc2C)CC1.Cl [HBK-17, 1-[(2,5-dimethylphenoxy)propyl]-4-(2-methoxyphenyl)piperazine hydrochloride]
- Number of crossings ± SEM (mice [1]; mouse, in vivo, ip, 5 mg/kg): 44.8

Structure (SMILES): CC1CCN(CC[C@H]2CCCN2S(=O)(=O)c2cccc(O)c2)CC1 [SB269970]
- Increase in the number of punished crossings vs non-treated control (mice [3]; […] i.p. 30 min before test (but not 1.25 or 5 mg/kg)): 137.5%

Structure (SMILES): COc1ccccc1N1CCN(CC(C(=O)NC(C)(C)C)c2ccccc2)CC1 (stereo not drawn) [WAY-100135]
- Agonist mode Emax % ([5]; agonist mode, 10 μM forskolin): 2%
- Antagonist mode Emax % [5, 9]: 8%
- Antagonist mode pIC50 [5, 9]: 7.9
- Kb ([5]; read-out: Antagonist mode Kb, antagonist mode, serotonin EC80 (120 nM)): 6.4 nM
- Agonist mode Emax % (5-HT1A receptor [6]; agonist mode): 2%
- Antagonist mode Emax % (5-HT1A receptor [6]; [10]): 0%
- Antagonist mode pIC50 (5-HT1A receptor [6]; [10]): 7.90
- Kb (5-HT1A receptor [6]; read-out: Antagonist mode Kb, antagonist mode, serotonin EC80 (45 nM)): 2.7 nM
- Agonist mode Emax % (5-HT1A receptor [7]; agonist mode, relative to serotonin): 1%
- Antagonist mode Emax % (5-HT1A receptor [7]; [11]): 5%
- Antagonist mode pIC50 (5-HT1A receptor [7]; [11]): 8.1
- Kb (5-HT1A receptor [7]; read-out: Antagonist mode Kb, antagonist mode, serotonin EC80 (300 nM)): 5.9 nM
- Agonist mode Emax % (5-HT1A receptor [8]; agonist mode): 2%
- Antagonist mode Emax % (5-HT1A receptor [8]; antagonist mode): 0%
- Antagonist mode pIC50 (5-HT1A receptor [8]; antagonist mode): 8.3
- Kb (5-HT1A receptor [8]; antagonist mode): 0.8 nM

Structure (SMILES): COc1ccccc1N1CCN(CCN(C(=O)C2CCCCC2)c2ccccn2)CC1 [WAY-100635]
- Number of crossings ± SEM (mice [1]; WAY-100635 experiment, WAY-100635 0.3 mg/kg): 27.9
- Effect on number of punished crossings (mice [2]; WAY-100635 alone, 0.3 mg/kg s.c.): did not influence

Structure (SMILES): CC(N)Cc1c[nH]c2ccc(O)cc12 (stereo not drawn) [α-Methylserotonin, α-methylserotonin]
- Agonist mode Emax % (5-HT2A receptor; agonist mode): 100%
- Agonist mode pEC50 (5-HT2A receptor; agonist mode): 8.70
- Antagonist mode Emax % (5-HT2A receptor; antagonist mode): 1%
